≈ marks a conversion by molar mass, not a printed value.
System: Entamoeba histolytica
Assay: Killing of Entamoeba histolytica trophozoites in culture, with particle ingestion
Type: cell-based
Conditions: drug alone
Description: The particles were diol subsituted silica or aluminum- silicate particles Fig. 1), in which aldehyde groups can be formed by pretreatment with periodate that oxidizes vicinal hydroxyl groups and yields aldehyde groups. […] Schiff base was then interacted with sodium bisulfite to stabilize the bond (Fig. 2). […] One mg of dry weight silica particles contains 10⁷-10⁹ particles depending on the source.

In the case of Cc1ncc([N+](=O)[O-])n1CCO [Metronidazole], the EC95 (Entamoeba histolytica, over 24 h, read-out: concentration required to kill more than 95% of the trophozoites) is reported as 1 to 5 µg/mL (≈ 5.84 to 29.2 µM) and the “time required to kill more than 95% of the trophozoites” value (1-5 µg/ml) is reported as “over 24 h”.

From patent EP0305968A2, “Compositions against protozoal diseases” (YEDA RESEARCH AND DEVELOPMENT COMPANY LIMITED, priority 1987, dated 1989)
